Laboratory results as given in PMC6930223 (Scientific Reports, 2019).

Legend:
[1] = tested on: hERG1a mRNA; test: RT-qPCR mRNA expression in HEK293-hERG1a/1b cells; type: cell-based, human; conditions: all concentrations, 24 h at 37 °C
Protocol: (§1) Briefly, total cellular RNA was isolated from treated cells using RNeasy® Plus Mini kit (Qiagen, Germany) following manufacturer’s instruction. The optimized RT-qPCR assay was performed using CFX96™ real-time PCR system (Bio-Rad Laboratories Inc., USA) with the following cycle parameters: 10 min at 50 °C for reverse transcription, 1 min at 95 °C for activation of Taq polymerase, followed by 40 cycles of 10 s at 95 °C for denaturation and 30 s at 53.9 °C for annealing and data acquisition. Specifically, the assay was performed using 100 ng of total RNA and iTaq™ Universal SYBR® Green One-Step Kit (Bio-Rad Laboratories Inc., USA) in 10 µl of reaction volume. A melt curve analysis was computed at the end of the qPCR cycles to determine the specificity of the primers. The results were analyzed using CFX Manager software version 3.1 (Bio-Rad Laboratories Inc., USA). The mRNA expressions of hERG1a/1b were presented as fold changes normalized to endogenous reference genes, ACTB and GAPDH, and relative to the control gene[69]–[71]. Each experiment was conducted in triplicate and data are presented as mean fold changes of three independent experiments.

[2] = tested on: hERG1b mRNA; test: RT-qPCR mRNA expression in HEK293-hERG1a/1b cells; type: cell-based, human; conditions: all concentrations, 24 h at 37 °C
Protocol: as §1

[3] = biological target: hERG1a/1b current (Homo sapiens, UniProt Q12809)
Protocol: All working solutions were sterile-filtered, stored at −20 °C and thawed to room temperature before use.
Prior to electrophysiology study, the HEK293-hERG1a/1b cells were first grown in complete medium without selection antibiotics for 6 days. Approximately 5.0 × 10^5 cells were then plated onto an uncoated 96-mm cell culture dish for a maximum of 3 days. […] The cell suspension was then transferred into a 15-ml polypropylene tube and centrifuged at 100 × g for 3 min. Subsequently, the cell pellet was resuspended in extracellular solution to obtain a final density of 2 × 10^6–3 × 10^6 cells/ml and incubated on ice for 20 min to allow cell recovery. The electrophysiology studies were performed using NPC®-1 chips (Nanion Technologies, Germany) and Port-a-Patch system (Nanion Technologies, Germany) following manufacturer’s instructions, within the next 2 h. For characterization and determination of the hERG1a/1b current inhibition, a series of voltage protocols were applied as published previously.
The hERG1a/1b current was recorded in cells achieving whole-cell configuration. Briefly, a single cell was first held at −80 mV, the theoretical cardiac resting membrane potential, on the aperture of the NPC-1 chip (Nanion Technologies, Germany). To characterize the I-V relationship, the cell was depolarized to test potentials ranging from −60 mV to +50 mV for 4 s in […], followed by a 5-s step to −50 mV before returning to −80mV.
To determine the pharmacological effects of the HEK293-hERG1a/1b cells, the cells were perfused with test compound solutions using an external perfusion system. […] The mean of six successive Itail was recorded for each test concentration. Four independent experiments were conducted to derive the dose-response curve.

mitragynine
effect on mRNA expression of hERG1a [1]: did not affect
effect on mRNA expression of hERG1b [2]: did not affect
Hill coefficient (h) ([3]; dose-response fit of hERG1a/1b tail current inhibition): 0.61
IC50 ([3]; read-out: IC50 of hERG1a/1b current inhibition, peak tail current, step pulse protocol, HEK293-hERG1a/1b cells, four independent experiments): 333 nM
